Results taken from PMC11989212, “Experimental Conditions to Retrieve Intrinsic Cooperativity α Directly from Single Binding Assay Data Exemplified by the Ternary Complex Formation of FKBP12, MAPRE1 and Macrocyclic Molecular Glues” (International Journal of Molecular Sciences, 2025).
“Also recorded” adds a separate entry of the source.

Assays:
FKBP12 [1] = molecular target: T1, FKBP12 (Homo sapiens, UniProt P62942); test: Spectral shift target engagement assay, binary binding to FKBP12; details: 40 nM FKBP12-NTA; KC,1 = EC50 − [Ctot]/2
Text: (§1) Our method of choice is the spectral shift method, which monitors binding events on the target isothermally and in equilibrium via an environment-sensitive near-infrared fluorophore. In the case of target engagement, either the proximity of the ligand towards the dye or structural changes occurring in the target as a result of binding lead to a change in the chemical environment of the fluorophore. Those changes affect the physiochemical properties of the reporter fluorophore and translate into either blue or red shifts (or peak broadening) of emission peaks upon ligand binding, which can be sensitively monitored by simultaneously recording the fluorescence at two wavelengths (i.e., at 650 nm and 670 nm). Calculating the ratio between the two fluorescence channels then allows to monitor subtle emission shifts that occur as a result of target engagement. Affinity measurements can then be performed by recording the spectral shift as a function of ligand concentration.
(§2) Binding studies through FKBP12: To monitor the binding of R,--SLF-11 by the stronger binding FKBP12 in the absence and in the presence of 10 μM MAPRE1 via %Cbound, binary and %Cbound, ternary, respectively, the concentration of reversibly NTA-labeled FKBP12 was limited to [Ctot] = 40 nM. […] In contrast to the experimental setup in the previous two binding experiments with monitoring through the weaker binding protein MAPRE1, where the applied protein concentrations were optimally chosen, this is not the case for the binding experiment through the stronger binder FKBP12. First of all, the applied excess of T with [Ttot] = 10 μM is roughly 20000-fold off of the proposed 100 times KT,1 threshold, which would correspond to 180 mM. Only under such excess conditions of T can the equilibrium of forming TL under the constraint that all ligand L is bound to T be reached to ensure that [Ltot] approaches the “ligand” concentration [TL]. […] If KC,2 is sufficiently high, the 20 nM deviation to correct for the protein concentration could be neglected. However, the resulting calculated value for KC,2 is 0.023 nM, accounting for the cooperativity α = 10,405 and KC,1 = 234 nM as derived by the MAPRE1 experiment. This value is far below the applied protein concentration of [Ctot] = 40 nM and makes it infeasible to estimate KC,2 from the EC50 of the %Cbound, ternary curve. Consequently, the EC50 shifts, meaning the apparent cooperativity, from monitoring the binding by the stronger binding protein C are diverging from the underlying intrinsic cooperativity α. […] The deviation of calculated (254 nM/24.2 nM = 10.5) and measured apparent cooperativity (254 nM/66 nM = 3.8) can be explained by a negative cooperativity induced by the His6-NTA tag of FKBP12. Studies to lower [Ctot] and identify a better position for the spectral shift tag on FKBP12 are ongoing (Figure 6a).
(§3) His-tagged FKBP12 was labeled using the His-Tag Labeling Kit RED-tris-NTA 2nd Generation (MO-L018; NanoTemper Technologies GmbH). The affinity between NTA dye and the His-tag of FKBP12 was determined as 7 nM. MAPRE1 was labeled using the Protein Labeling Kit RED-NHS 2nd Generation (MO-L011; NanoTemper Technologies GmbH). In brief, 10 µM of MAPRE1 was incubated with a 3-fold molar excess of fluorophore for 30 min. The unreacted fluorophore was removed by performing a size exclusion purification (B-column). Collecting the protein fraction yielded 1.8 µM labeled MAPRE1, with a degree of labeling of 0.8, as determined on a Nanodrop.
(§4) A 1:2 dilution series of all compounds (starting from the 10 mM stock concentration) was prepared in pure DMSO. Each concentration was diluted 25-fold with assay buffer (20 mM HEPES, pH 7.4, 150 mM NaCl, 1 mM DTT (all from Carl Roth, Karlsruhe, Germany), and 0.01% Pluronic F-127 (Sigma Aldrich, Taufkirchen, Germany)). Next, 10 µL from each of the prepared ligand dilutions was transferred into an empty well on a Dianthus Microwell Plate (DI-P001A). […]

[2] = molecular target: FKBP12 in the presence of MAPRE1 (Homo sapiens, UniProt P62942+Q15691); test: Spectral shift target engagement assay, binding to FKBP12 in the presence of 10 μM MAPRE1 (ternary); details: 40 nM FKBP12-NTA, 10 μM MAPRE1; read-out: EC50 of the %Cbound, ternary curve (measured)
Text: as §1, §2, §3, §4

[3] = molecular target: T2, MAPRE1 in the presence of FKBP12 (Homo sapiens, UniProt P62942+Q15691); test: Spectral shift target engagement assay, binding to MAPRE1 in the presence of 10 μM FKBP12 (ternary)
T2 construct: His-tag (N)
Text: as §1
Binding study through MAPRE1: MAPRE1 was labeled via lysines using an NHS-conjugated dye. The final concentration of MAPRE1NHS (referring to [Ttot]) was 5 nM. Compounds could be titrated up to a concentration of 200 μM (referring to [Ltot]). […] However more accuracy could only be achieved at higher ligand concentrations—ideally at full target saturation. However, this was experimentally infeasible due to assay conditions (i.e., the requirement of maintaining a certain DMSO concentration or avoiding solubility issues of the ligand). Although the determined KT,1 values of binding to MAPRE1 are only approximations, their relative ranking reflects the underlying differences in the affinity of the ligands L to MAPRE1. Performing these experiments in duplicates confirmed the high signal-to-noise ratio, i.e., there was no significant deviation between the two curves, indicating a high accuracy of the interpolated EC50 values. Due to the low [Ttot] = 5 nM, this value coincides with KT,1 (1.8 mM − 0.005 mM/2 ≈ 1.8 mM). […] Consequently, KT,2 corresponds to 173 nM and not 177.5 nM.
as §3
A 1:2 dilution series of all compounds (starting from the 10 mM stock concentration) was prepared in pure DMSO. Each concentration was diluted 25-fold with assay buffer (20 mM HEPES, pH 7.4, 150 mM NaCl, 1 mM DTT (all from Carl Roth, Karlsruhe, Germany), and 0.01% Pluronic F-127 (Sigma Aldrich, Taufkirchen, Germany)). Next, 10 µL from each of the prepared ligand dilutions was transferred into an empty well on a Dianthus Microwell Plate (DI-P001A). Another 10 µL of 2-fold concentrated labeled protein (either in the absence or the presence of 20 µM counter protein, both in assay buffer then yielded the final assay concentrations. Interaction measurements were prepared in duplicates for each condition. For binary interactions of compounds with MAPRE1, a final target concentration of 5 nM and a highest ligand concentration of 50 µM was prepared. For ternary interactions of compounds and MAPRE1 in the presence of 10 µM unlabeled FKBP12, the highest ligand concentration was increased to 200 µM, the highest concentration achievable while maintaining a constant 2% DMSO concentration. For all interactions measured via FKBP12, the target was prepared at a final concentration of 40 nM, supplemented with 5 nM NTA fluorophore. […]

[4] = system: FKBP12:R,S-SLF-X:MAPRE1 ternary complex; parameters: method as in PMID 40059881; details: TR-FRET proximity assay, reported earlier; cited from earlier work
FKBP12 [5] = molecular target: T1, FKBP12; parameters: method as in PMID 40059881; details: TR-FRET competitive binding assay from previous work; read-out: EC50_FKBP12; cited from earlier work
MAPRE1 = molecular target: T3, MAPRE1 (Homo sapiens, UniProt Q15691); test: Spectral shift target engagement assay, binary binding to MAPRE1; details: up to [Ltot] = 200 μM
T3 construct: His-tag (N)
T3 sequence (Q15691 1-268): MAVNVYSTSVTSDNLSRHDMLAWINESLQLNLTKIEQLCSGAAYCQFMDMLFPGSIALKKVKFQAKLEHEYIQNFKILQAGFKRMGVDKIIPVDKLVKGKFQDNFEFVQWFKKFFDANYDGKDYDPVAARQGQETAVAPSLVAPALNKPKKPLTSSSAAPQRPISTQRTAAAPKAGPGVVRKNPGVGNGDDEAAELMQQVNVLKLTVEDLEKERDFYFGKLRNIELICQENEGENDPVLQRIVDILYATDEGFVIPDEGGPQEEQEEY

T2 sequence (P62942 whole entry, one chain of several): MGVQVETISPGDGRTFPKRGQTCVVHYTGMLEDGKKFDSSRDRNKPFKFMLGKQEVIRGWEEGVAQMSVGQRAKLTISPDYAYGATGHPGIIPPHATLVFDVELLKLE
T1 sequence (P62942 whole entry, species assumed): as the sequence (P62942 whole entry, one chain of several) above
Chain of FKBP12 in the presence of MAPRE1 (P62942 whole entry, one chain of several): as above

COc1ccc(CCC2OC(=O)C3CCCCN3C(=O)C(=O)C(C)(C)COC(=O)C(C)NC(=O)C3CC(O)CN3C(=O)COc3cccc2c3)cc1OC (stereo not shown) [R,S-SLF-12]
Kd (FKBP12 [1]): 13 nM
EC50 [2]: 30 nM
ternary binding to MAPRE1 ([3]; 10 μM FKBP12): Neither binary nor ternary binding
Ratio [Ctot]/KC,1 ([3]; [Ctot] = 10 μM FKBP12): 769
TR-FRET Recruitment Assay (%Amax) [4]: 0%
EC50 (FKBP12 [5]): 43 nM
binary binding to MAPRE1 (%Tbound, binary) (MAPRE1): no binding; also recorded: Neither binary nor ternary binding
